{
  "source": "patent US6413936B1",
  "about": "“Glycomimetics as selectin antagonists and pharmaceuticals having antiinflammatory activity” (Glycorex AB, priority 1995, dated 2002)",
  "key": {"selectin": {"test_system": "selectin", "settings": "cited from earlier work"}, "selectins [1]": {"test_system": "selectins", "settings": "prior-art glycopeptide analogs; cited from earlier work"}, "selectins [2]": {"test_system": "selectins", "settings": "prior-art mimetics, Wong et al.; cited from earlier work"}, "P-selectin [3]": {"target": "T1, P-selectin (Homo sapiens, UniProt P16109)", "T1 sequence (P16109 42-830)": "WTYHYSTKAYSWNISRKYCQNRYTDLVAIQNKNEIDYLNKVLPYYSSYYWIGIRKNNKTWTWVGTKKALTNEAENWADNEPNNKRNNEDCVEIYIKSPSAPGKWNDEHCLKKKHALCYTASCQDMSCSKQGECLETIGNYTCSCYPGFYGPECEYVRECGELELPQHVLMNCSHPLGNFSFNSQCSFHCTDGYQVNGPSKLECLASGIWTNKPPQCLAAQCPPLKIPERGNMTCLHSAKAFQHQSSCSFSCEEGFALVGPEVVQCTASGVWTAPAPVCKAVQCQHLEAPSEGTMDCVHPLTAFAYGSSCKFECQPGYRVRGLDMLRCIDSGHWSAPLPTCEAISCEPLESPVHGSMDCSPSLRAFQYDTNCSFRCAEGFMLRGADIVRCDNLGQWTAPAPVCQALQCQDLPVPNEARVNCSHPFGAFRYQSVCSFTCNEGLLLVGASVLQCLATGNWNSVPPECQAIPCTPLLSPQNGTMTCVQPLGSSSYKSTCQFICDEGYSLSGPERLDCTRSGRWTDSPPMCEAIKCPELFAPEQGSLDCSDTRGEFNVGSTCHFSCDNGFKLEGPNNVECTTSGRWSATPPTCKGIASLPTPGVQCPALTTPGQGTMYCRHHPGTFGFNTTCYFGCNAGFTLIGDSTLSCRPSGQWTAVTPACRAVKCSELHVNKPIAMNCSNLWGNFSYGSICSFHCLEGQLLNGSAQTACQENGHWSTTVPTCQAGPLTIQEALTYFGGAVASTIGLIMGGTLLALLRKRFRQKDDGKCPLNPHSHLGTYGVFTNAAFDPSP", "settings": "read-out: IC50 for binding to P-selectin; cited from earlier work"}, "E-selectin": {"target": "T2, E-selectin (Homo sapiens, UniProt P16581)", "T2 construct": "fusion proteins formed from the extracytoplasmatic domains of E- or P-selectin, respectively, and the constant region of human immunoglobulin of the IgG1 subclass; made in house; host or cells: COS-7 cells (transient transfection, culture supernatant)", "T2 sequence (P16581 22-556)": "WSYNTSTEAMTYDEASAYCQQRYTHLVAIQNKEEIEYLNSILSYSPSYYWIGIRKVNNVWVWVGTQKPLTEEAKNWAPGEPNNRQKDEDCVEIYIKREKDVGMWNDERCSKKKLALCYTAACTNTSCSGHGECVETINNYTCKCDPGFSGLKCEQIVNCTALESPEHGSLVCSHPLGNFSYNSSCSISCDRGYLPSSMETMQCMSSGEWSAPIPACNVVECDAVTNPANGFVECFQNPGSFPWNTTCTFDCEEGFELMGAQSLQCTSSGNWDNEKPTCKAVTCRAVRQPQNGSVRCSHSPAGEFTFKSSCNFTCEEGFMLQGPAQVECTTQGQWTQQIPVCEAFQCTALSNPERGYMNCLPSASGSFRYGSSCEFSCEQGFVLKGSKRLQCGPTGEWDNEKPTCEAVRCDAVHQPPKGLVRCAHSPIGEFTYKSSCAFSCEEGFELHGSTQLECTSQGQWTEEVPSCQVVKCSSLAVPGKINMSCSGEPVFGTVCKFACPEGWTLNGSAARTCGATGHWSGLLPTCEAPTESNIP", "test": "HL60 cell adhesion assay on recombinant soluble E-selectin-IgG1 fusion protein", "format": "cell-based", "settings": "HL60 cell adhesion to E-selectin-IgG1", "source_text": "In these assays, the ligands may be supplied in their natural form as surface structures on promyelocytic HL60 cells. Since HL60 cells contain ligands and adhesion molecules of very different specificity, the desired specificity of the assay must therefore be provided by the binding component. Preferably, the binding components used are recombinant, soluble, fusion proteins formed from the extracytoplasmatic domains of E- or P-selectin, respectively, and the constant region of human immunoglobulin of the IgG1 subclass. […] An example of a suitable negative control is a fusion protein formed between the extracytoplasmic domain of CD4 and the IgG constant region.\nThese fusion proteins are then used in a cell adhesion assay in which COS cells transfected with the recombinant fusion proteins are first bound to the surface of a microtiter plate. The compound to be tested is added to the wells of the microtiter platein varying concentrations, followed by HL60 cells. After a defined period of time, the wells of the microtiter plate are washed and the HL60 cells adhering to the plate are counted. In a preferred embodiment, the HL60 cells are prelabeled with a fluorescent dye to facilitate cell counting. The number of cells adhering to the plate allows quantification of the inhibitory properties of the compound under test. […]"}, "P-selectin [4]": {"target": "T3, P-selectin (Homo sapiens, UniProt P16109)", "T3 construct": "fused on or other part: constant region (hinge-Fc) of human IgG1 at the C-terminus, used as a capture handle", "T3 sequence (P16109 42-321 limits assumed)": "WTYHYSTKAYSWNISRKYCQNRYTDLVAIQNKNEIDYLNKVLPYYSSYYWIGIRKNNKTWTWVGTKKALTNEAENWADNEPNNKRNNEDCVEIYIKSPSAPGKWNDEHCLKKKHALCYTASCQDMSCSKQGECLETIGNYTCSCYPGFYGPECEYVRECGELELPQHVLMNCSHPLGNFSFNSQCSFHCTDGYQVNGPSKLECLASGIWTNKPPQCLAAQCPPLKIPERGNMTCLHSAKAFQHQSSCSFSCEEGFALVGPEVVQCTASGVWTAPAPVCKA", "test": "HL60 cell adhesion assay on recombinant soluble P-selectin-IgG1 fusion protein", "format": "cell-based", "settings": "HL60 cell adhesion to P-selectin-IgG1", "description": "5. […] In the course of this, the cells have the opportunity to adhere to the coated plastic."}, "[5]": {"test_system": "P-selectin-dependent lung damage", "settings": "animal experiments; cited from earlier work"}, "[6]": {"test_system": "myocardial reperfusion injuries", "settings": "animal experiments; cited from earlier work"}},
  "note": "Like-named read-outs stand apart in the source and are kept apart here. Numbered stars: 1 amine (or outer) side, 2 acyl side, 3 side chain; on linkers, the order of the positions; unused ones are H or OH. Square brackets hold non-standard residues; d marks the D form. Peptide text beside a SMILES is read from it. ξ: configuration not given here. X1 = CC1O[C@@H](CCCc2ccc(CC(N[*:1])C(=O)[*:2])cc2)C(O)C(O)[C@@H]1O; ξR = N=C(N)NCCCC(N)C(=O)O; ξS = NC(CO)C(=O)O",
  "data": [
    {"molecule": "COC1OC(C)C(O)(CC(=O)CCCOC2(C(=O)O)CC(O)C(NC(C)=O)C([C@H](O)[C@H](O)CO)O2)C(O)C1O", "note": "(some centres unmarked)", "values": [
      {"measurement": "affinity for selectin binding", "setting": "selectin", "result": "only low affinity"}
    ]},
    {"molecule": "C[C@@H]1OC(CC(=O)C2CCC[C@H]2C(=O)N[C@@H](Cc2ccccc2)C(=O)O)[C@@H](O)[C@H](O)[C@@H]1O", "note": "(some centres unmarked) [(2)]", "values": [
      {"measurement": "IC50", "setting": "selectins [1]", "result": "~1", "unit": "mM"}
    ]},
    {"molecule": "C[C@@H]1OC(CCCCC2O[C@H](CO)[C@H](O)[C@H](OCC(=O)O)[C@H]2O)[C@@H](O)C(O)[C@@H]1O", "note": "(some centres unmarked) [(3)]", "values": [
      {"measurement": "IC50", "setting": "selectins [2]", "result": "10 to 20", "unit": "mM"}
    ]},
    {"molecule": "C[C@@H]1O[C@@H](CC(=O)CO[C@H]2CC[C@@]3(C)C(CC[C@]4(C)[C@H]3C(=O)C=C3[C@@H]5C[C@@](C)(C(=O)O)CC[C@]5(C)CC[C@]34C)C2(C)C)[C@@H](O)[C@H](O)[C@@H]1O", "note": "(some centres unmarked) [(4a)]", "values": [
      {"measurement": "IC50", "setting": "P-selectin [3]", "result": 750, "unit": "µM"}
    ]},
    {"molecule": "C[C@@H]1O[C@@H](CCCc2ccc(CC(N)C(=O)O)cc2)[C@@H](O)[C@H](O)[C@@H]1O", "note": "(some centres unmarked) [Compound 20]", "values": [
      {"measurement": "IC50", "setting": "E-selectin", "result": 2, "unit": "mM"},
      {"measurement": "IC50", "setting": "P-selectin [4]", "result": 2, "unit": "mM"}
    ]},
    {"molecule": "CC1O[C@@H](C/C=C/c2ccc(C(=O)O)cc2)C(O)[C@@H](O)[C@@H]1O", "note": "(some centres unmarked) [Compound 23]", "values": [
      {"measurement": "IC50", "setting": "E-selectin", "result": 2, "unit": "mM"},
      {"measurement": "IC50", "setting": "P-selectin [4]", "result": 2, "unit": "mM"}
    ]},
    {"molecule": "CC1O[C@@H](CCCc2ccc(CC(N)C(=O)NC(CCCNC(=N)N)C(=O)NCC(=O)N[C@@H](CC(=O)O)C(=O)NC(CO)C(=O)O)cc2)C(O)C(O)[C@@H]1O", "note": "(stereo partly drawn) [Compound 36, Ser-Asp-Gly-Arg-[C-FucPhe]] (H-[X1][ξR]GD[ξS]-OH)", "values": [
      {"measurement": "IC50", "setting": "P-selectin [4]", "result": "3 to 5", "unit": "mM"}
    ]},
    {"molecule": "sialyl-Lewis-X [SLeX]", "values": [
      {"measurement": "protection against P-selectin-dependent lung damage", "setting": "[5]", "result": "used successfully"},
      {"measurement": "protection against myocardial reperfusion injuries", "setting": "[6]", "result": "used successfully"}
    ]}
  ]
}
